Values quoted from earlier work, collected in patent US20050227966A1 (Wyeth, priority 2004, published 2005).

Columns and labels:
uterine response = details: preclinical models of uterine stimulation
[1] = test system: ovariectomized rat model of osteopenia
[2] = test system: MCF-7 cell line (human breast cancer cell line); details: MCF-7 cells

For `Cc1c(-c2ccc(O)cc2)n(Cc2ccc(OCCN3CCCCCC3)cc2)c2ccc(O)cc12` [bazedoxifene acetate, 1-[4-(2-azepan-1-yl-ethoxy)-benzyl]-2-(4-hydroxy-phenyl)-3-methyl-1H-indol-5-ol acetic acid], the “stimulation of uterine response” value (uterine response) is given as “little or no stimulation”, the “effect in preventing bone loss and reducing cholesterol” value [1] is given as “estrogen agonist-like effect” and the estrogen agonist/antagonist behaviour [2] is given as “estrogen antagonist”.
